Consider 17 compounds from US10526347B2, “3-(3H-imidazo[4,5-B]pyridin-2-yl)-1H-pyrazolo[3,4-B]pyridine and therapeutic uses thereof” (Samumed, LLC, priority 2014, dated 2020).

The structures appear in SMILES notation.

The subject of test [1] is primary human fibroblasts derived from IPF patients (LL29 cells). Description: Inhibition of the fibrotic process in TGF-β1 treated IPF patient fibroblasts (αSMA staining). It counts as cell-based. The following applies: Fibroblast, 96 h, LL29 cells treated with TGF-β1 (20 ng/mL), 4 days, read-out: Inhibition of fibrosis EC50. An excerpt: The above synthesized compounds were screened using primary human fibroblasts (derived from IPF patients) treated with TGF-β1 to determine their ability to inhibit the fibrotic process.
Primary human fibroblasts derived from IPF patients (LL29 cells) [^1Xiaoqiu Liu, et. al., “Fibrotic Lung Fibroblasts Show Blunted Inhibition by cAMP Due to Deficient cAMP Response Element-Binding Protein Phosphorylation”, Journal of Pharmacology and Experimental Therapeutics (2005), 315(2), 678-687; ^2Watts, K. L., et. al., “RhoA signaling modulates cyclin D1 expression in human lung fibroblasts; implications for idiopathic pulmonary fibrosis”, Respiratory Research (2006), 7(1), 88] were obtained from American Type Culture Collection (ATCC) and expanded in F12 medium supplemented with 15% Fetal Bovine Serum and Penicillin/Streptomycin.
Each compound was dissolved in DMSO as a 10 mM stock and used to prepare compound source plates. Serial dilution (1:2, 11-point dose-response curves from 10 μM to 1.87 nM) and compound transfer was performed using the ECHO 550 (Labcyte, Sunnyvale, Calif.) into 384-well clear bottom assay plates (Greiner Bio-One) with appropriate DMSO backfill for a final DMSO concentration of 0.1%. LL29 cells were plated at 1,500 cells/well in 80 μl/well F12 medium supplemented with 1% Fetal Bovine Serum. One hour after addition of the cells, TGF-β1 (Peprotech; 20 ng/mL) was added to the plates to induce fibrosis (ref. 1 and 2 above). Wells treated with TGF-β1 and containing DMSO were used as controls. Cells were incubated at 37° C. and 5% CO2 for 4 days. Following incubation for 4 days, SYTOX green nucleic acid stain (Life Technologies [Thermo Fisher Scientific]) was added to the wells at a final concentration of 1 uM and incubated at room temperature for 30 min. Cells were then fixed using 4% formaldehyde (Electron Microscopy Sciences), washed 3 times with PBS followed by blocking and permeabilization using 3% Bovine Serum Albumin (BSA; Sigma) and 0.3% Triton X-100 (Sigma) in PBS. Cells were then stained with antibody specific to α-smooth muscle actin (αSMA; Abcam) (ref. 1 and 2 above) in 3% Bovine Serum Albumin (BSA; Sigma) and 0.3% Triton X-100 (Sigma) in PBS, and incubated overnight at 4° C. Cells were then washed 3 times with PBS, followed by incubation with Alexa Flor-647 conjugated secondary antibody (Life Technologies [Thermo Fisher Scientific]) and DAPI at room temperature for 1 hour. Cells were then washed 3 times with PBS and plates were sealed for imaging. αSMA staining was imaged by excitation at 630 nm and emission at 665 nm and quantified using the Compartmental Analysis program on the CellInsight CX5 (Thermo Scientific). Dead or apoptotic cells were excluded from analysis based on positive SYTOX green staining. % of total cells positive for αSMA were counted in each well and normalized to the average of 11 wells treated with TGF-β1 on the same plate using Dotmatics' Studies Software. The normalized averages (fold change over untreated) of 3 replicate wells for each compound concentration were used to create dose-responses curves and EC50 values were calculated using non-linear regression curve fit in the Dotmatics' Studies Software. The EC50 values are reported.

For test [2], the system named is Wnt activity (SW480 colon carcinoma cells stably expressing the Sp5-Luc reporter gene). The experiment in a line: Sp5-Luc reporter gene screening assay for Wnt activity. It counts as cell-based. Particulars: Homo sapiens. An excerpt:
The screening assay for Wnt activity is described as follows. Reporter cell lines can be generated by stably transducing cancer cell lines (e.g., colon cancer) or primary cells (e.g., IEC-6 intestinal cells) with a lentiviral construct that includes a Wnt-responsive promoter driving expression of the firefly luciferase gene.
SW480 colon carcinoma cells were transduced with a lentiviral vector expressing luciferase with a human Sp5 promoter consisting of a sequence of eight TCF/LEF binding sites. SW480 cells stably expressing the Sp5-Luc reporter gene and a hygromycin resistance gene were selected by treatment with 150 μg/ml of hygromycin for 7 days. These stably transduced SW480 cells were expanded in cell culture and used for all further screening activities. For Sp5-Luc reporter gene assays, the cells were plated at 10,000 cells/well in 96-well plates with growth medium containing 10% fetal calf serum and incubated overnight at 37° C. and 5% CO2. Each compound was dissolved in DMSO as a 10 mM stock in standard j-vials and used to prepare compound source plates in dose-response format with 3-fold serial dilutions and a 10 mM top concentration. Compound transfer from serially diluted source plates to assay plates containing the cells was accomplished using a pintool (Multimek 96, Beckman equipped with V&P Scientific FP1S50H pins) based liquid handling protocol. This protocol used a slotted pin to transfer 50 nl of compound from a source plate well to an assay plate well containing 50 μl of cells in growth medium. […] Control wells received 50 nl of DMSO treatment for normalization and calculating IC50 values. The treated cells were incubated at 37° C. and 5% CO2 for an additional forty-two hours. Following incubation, the growth medium was removed and 50 μl of BrightGlo luminescence reagent (Promega) was added to each well of the 96-well assay plates. The plates were placed on an orbital shaker for 5 min and then luminescence was quantified on the Victor3 (Perkin Elmer) plate reader. Readings were normalized to DMSO only treated cells, and normalized activities were utilized for IC50 calculations using the dose-response log (inhibitor) vs. response -variable slope (four parameters) nonlinear regression feature available in GraphPad Prism 5.0 or 6.0.

As to `CN(C)Cc1cncc(-c2cnc3[nH]nc(-c4nc5c(-c6cccc(F)c6)ccnc5[nH]4)c3c2)c1` [Compound 10, 1-(5-(3-(7-(3-Fluorophenyl)-3H-imidazo[4,5-b]pyridin-2-yl)-1H-pyrazolo[3,4-b]pyridin-5-yl)pyridin-3-yl)-N,N-dimethylmethanamine], the EC50 in test [1] stood at 2550 nM. Moreover, the IC50 in test [2] is > 10000 nM.
Regarding `CC(C)(C)C(=O)Nc1cncc(-c2cnc3[nH]nc(-c4nc5c(-c6ccc(F)cc6)ccnc5[nH]4)c3c2)c1` [Compound 28, N-(5-(3-(7-(4-Fluorophenyl)-3H-imidazo[4,5-b]pyridin-2-yl)-1H-pyrazolo[3,4-b]pyridin-5-yl)pyridin-3-yl)pivalamide], the EC50 in test [1] was 26 nM. 42.3 nM corresponded to half-maximal inhibition in test [2] (IC50).
For the compound `Fc1ccc(-c2ccnc3[nH]c(-c4n[nH]c5ncc(-c6cncc(CN7CCCC7)c6)cc45)nc23)cc1` [Compound 33, 3-(7-(4-Fluorophenyl)-3H-imidazo[4,5-b]pyridin-2-yl)-5-(5-(pyrrolidin-1-ylmethyl)pyridin-3-yl)-1H-pyrazolo[3,4-b]pyridine], the EC50 in test [1] is 7800 nM. In addition, half-maximal inhibition in test [2] (IC50) was put at 144 nM.
As to `O=C(Nc1cncc(-c2cnc3[nH]nc(-c4nc5c(-c6ccccc6F)ccnc5[nH]4)c3c2)c1)C1CCCC1` [Compound 61, N-(5-(3-(7-(2-Fluorophenyl)-3H-imidazo[4,5-b]pyridin-2-yl)-1H-pyrazolo[3,4-b]pyridin-5-yl)pyridin-3-yl)cyclopentanecarboxamide], the EC50 in test [1] was determined as 587 nM. Also, the midpoint of inhibition in test [2], the IC50, lay at 42 nM.
In the same order, the values of `c1cncc(-c2cnc3[nH]nc(-c4nc5c(-c6cccnc6)ccnc5[nH]4)c3c2)c1` [Compound 68, 5-(Pyridin-3-yl)-3-(7-(pyridin-3-yl)-3H-imidazo[4,5-b]pyridin-2-yl)-1H-pyrazolo[3,4-b]pyridine] are ≥ 9990 nM and > 10000 nM.
Consider `c1cncc(-c2ccnc3[nH]c(-c4n[nH]c5ncc(-c6cncc(CN7CCCCC7)c6)cc45)nc23)c1` [Compound 78, 5-(5-(Piperidin-1-ylmethyl)pyridin-3-yl)-3-(7-(pyridin-3-yl)-3H-imidazo[4,5-b]pyridin-2-yl)-1H-pyrazolo[3,4-b]pyridine], for which the EC50 in test [1] was ≥ 9990 nM. The IC50 in test [2] was > 10000 nM.
With `Cc1ccncc1-c1cnc2[nH]nc(-c3nc4c(-c5ccncc5)ccnc4[nH]3)c2c1` [Compound 91, 5-(4-Methylpyridin-3-yl)-3-(7-(pyridin-4-yl)-3H-imidazo[4,5-b]pyridin-2-yl)-1H-pyrazolo[3,4-b]pyridine], the EC50 in test [1] was ≥ 9990 nM. In addition, in test [2], the IC50 is > 10000 nM.
Regarding `CCCC(=O)Nc1cncc(-c2cnc3[nH]nc(-c4nc5c(-c6ccncc6)ccnc5[nH]4)c3c2)c1` [Compound 102, N-(5-(3-(7-(Pyridin-4-yl)-3H-imidazo[4,5-b]pyridin-2-yl)-1H-pyrazolo[3,4-b]pyridin-5-yl)pyridin-3-yl)butyramide], in test [1], the EC50 was ≥ 9990 nM. Further, the IC50 in test [2] is 2380 nM.
In the same order, the values of `O=C(Nc1cncc(-c2cnc3[nH]nc(-c4nc5c(-c6ccncc6)ccnc5[nH]4)c3c2)c1)C1CCCCC1` [Compound 106, N-(5-(3-(7-(Pyridin-4-yl)-3H-imidazo[4,5-b]pyridin-2-yl)-1H-pyrazolo[3,4-b]pyridin-5-yl)pyridin-3-yl)cyclohexanecarboxamide] are ≥ 9990 nM and > 10000 nM.
Taken in the same sequence, the figures for `CCNCc1cncc(-c2cnc3[nH]nc(-c4nc5c(-c6ccccn6)ccnc5[nH]4)c3c2)c1` [Compound 114, N-((5-(3-(7-(Pyridin-2-yl)-3H-imidazo[4,5-b]pyridin-2-yl)-1H-pyrazolo[3,4-b]pyridin-5-yl)pyridin-3-yl)methyl)ethanamine] were ≥ 9990 nM and > 10000 nM.
Take `c1ccc(-c2ccnc3[nH]c(-c4n[nH]c5ncc(-c6cncc(CNCC7CCCC7)c6)cc45)nc23)nc1` [Compound 130, 1-Cyclopentyl-N-((5-(3-(7-(pyridin-2-yl)-3H-imidazo[4,5-b]pyridin-2-yl)-1H-pyrazolo[3,4-b]pyridin-5-yl)pyridin-3-yl)methyl)methanamine]: in test [1], the EC50 was ≤ 9 nM. In addition, the IC50 in test [2] came out at 633 nM.
In the same order, the values of `CN(C)c1cncc(-c2cnc3[nH]nc(-c4nc5c(N6CCCCC6)ccnc5[nH]4)c3c2)c1` [Compound 139, N,N-Dimethyl-5-(3-(7-(piperidin-1-yl)-3H-imidazo[4,5-b]pyridin-2-yl)-1H-pyrazolo[3,4-b]pyridin-5-yl)pyridin-3-amine] are ≥ 9990 nM and 384 nM.
Taken in the same sequence, the figures for `CN(C)Cc1cncc(-c2cnc3[nH]nc(-c4nc5c(N6CCCCC6)ccnc5[nH]4)c3c2)c1` [Compound 145, N,N-Dimethyl-1-(5-(3-(7-(piperidin-1-yl)-3H-imidazo[4,5-b]pyridin-2-yl)-1H-pyrazolo[3,4-b]pyridin-5-yl)pyridin-3-yl)methanamine] were 1440 nM and 2800 nM.
In the case of `O=C(Nc1cncc(-c2cnc3[nH]nc(-c4nc5c(N6CCCCC6)ccnc5[nH]4)c3c2)c1)C1CC1` [Compound 151, N-(5-(3-(7-(Piperidin-1-yl)-3H-imidazo[4,5-b]pyridin-2-yl)-1H-pyrazolo[3,4-b]pyridin-5-yl)pyridin-3-yl)cyclopropanecarboxamide], the EC50 in test [1] amounted to 414 nM. Moreover, the half-inhibitory concentration (IC50) in test [2] stood at 247 nM.
As to `FC1(F)CCN(Cc2cncc(-c3cnc4[nH]nc(-c5nc6c(N7CCCCC7)ccnc6[nH]5)c4c3)c2)C1` [Compound 157, 5-(5-((3,3-Difluoropyrrolidin-1-yl)methyl)pyridin-3-yl)-3-(7-(piperidin-1-yl)-3H-imidazo[4,5-b]pyridin-2-yl)-1H-pyrazolo[3,4-b]pyridine], the EC50 in test [1] was ≤ 9 nM. In test [2], this compound returned an IC50 of 4210 nM.
As for `Cc1cn(-c2ccnc3[nH]c(-c4n[nH]c5ncc(-c6cncc(NC(=O)C(C)(C)C)c6)cc45)nc23)cn1` [Compound 165, N-(5-(3-(7-(4-Methyl-1H-imidazol-1-yl)-3H-imidazo[4,5-b]pyridin-2-yl)-1H-pyrazolo[3,4-b]pyridin-5-yl)pyridin-3-yl)pivalamide], the EC50 in test [1] was ≥ 9990 nM. The IC50 in test [2] is > 10000 nM.
On to `Cc1cn(-c2ccnc3[nH]c(-c4n[nH]c5ncc(-c6cncc(CN7CCCC7)c6)cc45)nc23)cn1` [Compound 171, 3-(7-(4-Methyl-1H-imidazol-1-yl)-3H-imidazo[4,5-b]pyridin-2-yl)-5-(5-(pyrrolidin-1-ylmethyl)pyridin-3-yl)-1H-pyrazolo[3,4-b]pyridine], for which the EC50 in test [1] is ≤ 9 nM. The same compound registered an IC50 in test [2] of 276 nM.
